Test results as given in ChEMBL document CHEMBL1806487, “Design, synthesis and docking studies on benzamide derivatives as histone deacetylase inhibitors” (Bioorg Med Chem Lett, 2011).

Columns and labels:
[1] = Inhibition of HDAC by fluorescence assay
DU-145 [2] = experiment: Anticancer activity against human DU145 cells after 72 hrs by MTT assay; type: functional
A2780 = experiment: Anticancer activity against human A2780 cells after 72 hrs by MTT assay; type: functional
DU-145 [3] = experiment: Ratio of MS-275 GI to compound GI for human DU145 cells; type: functional
HCT-116 = experiment: Anticancer activity against human HCT116 cells after 72 hrs by MTT assay; type: functional
MDA-MB-231 = experiment: Anticancer activity against human MDA-MB-231 cells after 72 hrs by MTT assay; type: functional
[4] = Ratio of MS-275 IC50 to compound IC50 to for HDAC

Structure (SMILES)	IC50 [1] [µM]	GI (DU-145 [2]) [µM]	GI (A2780) [µM]	further results
Nc1ccccc1NC(=O)c1ccc(C(=O)CNC(=O)c2ccccn2)cc1	30.2			
Nc1ccccc1NC(=O)c1ccc(C(=O)CNS(=O)(=O)c2cccnc2Cl)cc1	11.1			
Nc1ccccc1NC(=O)c1ccc(C(=O)CNC(=O)c2ccccc2)cc1	> 100			
Nc1ccc(S(=O)(=O)NCC(=O)c2ccc(C(=O)Nc3ccccc3N)cc2)cc1	3.8	0.16	5.7	Ratio (DU-145 [3]): 50
Nc1cccc(C(=O)NCC(=O)c2ccc(C(=O)Nc3ccccc3N)cc2)c1	70.7			
Nc1ccccc1NC(=O)c1ccc(CNC(=O)OCc2cccnc2)cc1 [ENTINOSTAT]	13	7.9	5.7	GI (HCT-116): 3.1 µM; GI (MDA-MB-231): 2.8 µM
Nc1ccc(C(=O)NCC(=O)c2ccc(C(=O)Nc3ccccc3N)cc2)cc1	50.2			
Nc1cc(C(=O)NCC(=O)c2ccc(C(=O)Nc3ccccc3N)cc2)ccn1	42.6			
Cc1ccc(S(=O)(=O)NCC(=O)c2ccc(C(=O)Nc3ccccc3N)cc2)cc1	22.4	37.7	>100	GI (HCT-116): 18.7 µM; GI (MDA-MB-231): 18.4 µM; Ratio IC50 [4]: 4
